Results from ChEMBL document CHEMBL3885881, “DrugMatrix”.

Organism: Rattus norvegicus
Experiment: DrugMatrix - Regimen: Daily Repeat
Assay type: toxicity, organism-based, Sprague-Dawley
Set-up: regimen Daily Repeat, gender Male, age 6-8 weeks
Conditions: in vivo, po, route oral GAVAGE, vehicle .5 % CMC; for ABSOLUTE BASOPHIL / ABSOLUTE EOSINOPHIL / ABSOLUTE LYMPHOCYTE / ABSOLUTE MONOCYTE / ABSOLUTE SEGMENTED NEUTROPHIL / BASOPHIL / EOSINOPHIL / ERYTHROCYTE COUNT / HEMATOCRIT / HEMOGLOBIN / LEUKOCYTE COUNT / LYMPHOCYTE / MEAN CORPUSCULAR HEMOGLOBIN / MEAN CORPUSCULAR HEMOGLOBIN CONCENTRATION / MEAN CORPUSCULAR VOLUME / MONOCYTE / NEUTROPHIL / NUCLEATED RED BLOOD CELLS / PLATELET COUNT: tissue Blood; for ALANINE AMINOTRANSFERASE / ALBUMIN / ALKALINE PHOSPHATASE / ASPARTATE AMINOTRANSFERASE / BLOOD UREA NITROGEN / CARBON DIOXIDE / CHLORIDE / CHOLESTEROL / CREATINE PHOSPHOKINASE / CREATININE / GLUCOSE / LACTATE DEHYDROGENASE / LIPASE / PHOSPHORUS / POTASSIUM / SODIUM / TOTAL BILIRUBIN / TOTAL PROTEIN / URIC ACID: tissue Plasma
[1] = 0 mg/kg, 72 h, dose level Control, time 3 day
[2] = 0 mg/kg, 120 h, dose level Control, time 5 day
[3] = 2000 mg/kg, 72 h, dose level High, time 3 day

What does the source list for O=C1Nc2ccc(Cl)cc2C(c2ccccc2Cl)=NC1O (centres undefined) [LORAZEPAM]?
ABSOLUTE BASOPHIL [1]: 0 CELLS/uL; ABSOLUTE EOSINOPHIL [1]: 171.33 CELLS/uL; ABSOLUTE LYMPHOCYTE [1]: 13776.5 CELLS/uL; ABSOLUTE MONOCYTE [1]: 180.83 CELLS/uL; ABSOLUTE SEGMENTED NEUTROPHIL [1]: 1121.33 CELLS/uL; BASOPHIL [1]: 0%; EOSINOPHIL [1]: 1%; ERYTHROCYTE COUNT [1]: 5.56 x10E6/uL; HEMATOCRIT [1]: 34.75%; HEMOGLOBIN [1]: 13.68 G/DL; LEUKOCYTE COUNT [1]: 15.25 x10E3/uL; LYMPHOCYTE [1]: 90.17%; MEAN CORPUSCULAR HEMOGLOBIN [1]: 24.6 pg; MEAN CORPUSCULAR HEMOGLOBIN CONCENTRATION [1]: 39.4 G/DL; MEAN CORPUSCULAR VOLUME [1]: 62.48 fL; MONOCYTE [1]: 1.17%; NEUTROPHIL [1]: 7.67%; NUCLEATED RED BLOOD CELLS [1]: 0 /100WBC; PLATELET COUNT [1]: 1342 x10E3/uL; ALANINE AMINOTRANSFERASE [1]: 49.67 u/L; ALBUMIN [1]: 4.15 G/DL; ALKALINE PHOSPHATASE [1]: 346.83 u/L; ASPARTATE AMINOTRANSFERASE [1]: 108.17 u/L; BLOOD UREA NITROGEN [1]: 17.33 mg/dL; CARBON DIOXIDE [1]: 25 mmol/L; CHLORIDE [1]: 100.83 MEQ/L; CHOLESTEROL [1]: 66.83 mg/dL; CREATINE PHOSPHOKINASE [1]: 788 u/L; CREATININE [1]: 0.18 mg/dL; GLUCOSE [1]: 151.67 mg/dL; LACTATE DEHYDROGENASE [1]: 982.5 u/L; LIPASE [1]: 10.33 u/L; PHOSPHORUS [1]: 11.23 mg/dL; POTASSIUM [1]: 6.37 MEQ/L; SODIUM [1]: 141.02 MEQ/L; TOTAL BILIRUBIN [1]: 0.18 mg/dL; TOTAL PROTEIN [1]: 5.9 G/DL; URIC ACID [1]: 1.8 mg/dL; ABSOLUTE BASOPHIL [2]: 0 CELLS/uL; ABSOLUTE EOSINOPHIL [2]: 69 CELLS/uL; ABSOLUTE LYMPHOCYTE [2]: 13632.83 CELLS/uL; ABSOLUTE MONOCYTE [2]: 139.83 CELLS/uL; ABSOLUTE SEGMENTED NEUTROPHIL [2]: 1225 CELLS/uL; BASOPHIL [2]: 0%; EOSINOPHIL [2]: 0.33%; ERYTHROCYTE COUNT [2]: 5.52 x10E6/uL; HEMATOCRIT [2]: 33.98%; HEMOGLOBIN [2]: 13.22 G/DL; LEUKOCYTE COUNT [2]: 15.07 x10E3/uL; LYMPHOCYTE [2]: 90.83%; MEAN CORPUSCULAR HEMOGLOBIN [2]: 23.95 pg; MEAN CORPUSCULAR HEMOGLOBIN CONCENTRATION [2]: 38.9 G/DL; MEAN CORPUSCULAR VOLUME [2]: 61.53 fL; MONOCYTE [2]: 0.83%; NEUTROPHIL [2]: 8%; NUCLEATED RED BLOOD CELLS [2]: 0 /100WBC; PLATELET COUNT [2]: 1196 x10E3/uL; ALANINE AMINOTRANSFERASE [2]: 49.17 u/L; ALBUMIN [2]: 4.2 G/DL; ALKALINE PHOSPHATASE [2]: 352.33 u/L; ASPARTATE AMINOTRANSFERASE [2]: 89.67 u/L; BLOOD UREA NITROGEN [2]: 18 mg/dL; CARBON DIOXIDE [2]: 27.67 mmol/L; CHLORIDE [2]: 101 MEQ/L; CHOLESTEROL [2]: 72.83 mg/dL; CREATINE PHOSPHOKINASE [2]: 417.5 u/L; CREATININE [2]: 0.18 mg/dL; GLUCOSE [2]: 150.5 mg/dL; LACTATE DEHYDROGENASE [2]: 517.33 u/L; LIPASE [2]: 9 u/L; PHOSPHORUS [2]: 11.87 mg/dL; POTASSIUM [2]: 6.57 MEQ/L; SODIUM [2]: 143.62 MEQ/L; TOTAL BILIRUBIN [2]: 0.2 mg/dL; TOTAL PROTEIN [2]: 6.08 G/DL; URIC ACID [2]: 1.45 mg/dL; ABSOLUTE BASOPHIL [3]: 0 CELLS/uL; ABSOLUTE EOSINOPHIL [3]: 93.33 CELLS/uL; ABSOLUTE LYMPHOCYTE [3]: 11320 CELLS/uL; ABSOLUTE MONOCYTE [3]: 259.33 CELLS/uL; ABSOLUTE SEGMENTED NEUTROPHIL [3]: 1294 CELLS/uL; BASOPHIL [3]: 0%; EOSINOPHIL [3]: 0.67%; ERYTHROCYTE COUNT [3]: 6.11 x10E6/uL; HEMATOCRIT [3]: 38.6%; HEMOGLOBIN [3]: 15.07 G/DL; LEUKOCYTE COUNT [3]: 12.97 x10E3/uL; LYMPHOCYTE [3]: 87.33%; MEAN CORPUSCULAR HEMOGLOBIN [3]: 24.63 pg; MEAN CORPUSCULAR HEMOGLOBIN CONCENTRATION [3]: 39.03 G/DL; MEAN CORPUSCULAR VOLUME [3]: 63.1 fL; MONOCYTE [3]: 2%; NEUTROPHIL [3]: 10%; NUCLEATED RED BLOOD CELLS [3]: 0 /100WBC; PLATELET COUNT [3]: 1214.33 x10E3/uL; ALANINE AMINOTRANSFERASE [3]: 72.67 u/L; ALBUMIN [3]: 4.4 G/DL; ALKALINE PHOSPHATASE [3]: 338 u/L; ASPARTATE AMINOTRANSFERASE [3]: 105.33 u/L; BLOOD UREA NITROGEN [3]: 24 mg/dL; CARBON DIOXIDE [3]: 21.33 mmol/L; CHLORIDE [3]: 99.33 MEQ/L; CHOLESTEROL [3]: 119.67 mg/dL; CREATINE PHOSPHOKINASE [3]: 966.67 u/L; CREATININE [3]: 0.22 mg/dL; GLUCOSE [3]: 161.67 mg/dL; LACTATE DEHYDROGENASE [3]: 346.33 u/L; LIPASE [3]: 16.67 u/L; PHOSPHORUS [3]: 10.23 mg/dL; POTASSIUM [3]: 5.79 MEQ/L; SODIUM [3]: 140.87 MEQ/L; TOTAL BILIRUBIN [3]: 0.27 mg/dL; TOTAL PROTEIN [3]: 6.23 G/DL; URIC ACID [3]: 1.5 mg/dL
